Experimental data reported in PMC5691768, “Comparison of the Micellar Incorporation and the Intestinal Cell Uptake of Cholecalciferol, 25-Hydroxycholecalciferol and 1-α-Hydroxycholecalciferol” (Nutrients, 2017).

Columns and labels:
[1] = target: T1, SR-BI (Homo sapiens, UniProt Q8WTV0); test: Uptake by Caco-2 cells with SR-BI inhibition by BLT1; format: in vitro ADME; details: 10 µM BLT1 (SR-BI inhibitor), n = 3
T1 construct: endogenous in cells; host or cells: Caco-2 clone TC-7
T1 sequence (Q8WTV0 1-509 isoform Q8WTV0-2): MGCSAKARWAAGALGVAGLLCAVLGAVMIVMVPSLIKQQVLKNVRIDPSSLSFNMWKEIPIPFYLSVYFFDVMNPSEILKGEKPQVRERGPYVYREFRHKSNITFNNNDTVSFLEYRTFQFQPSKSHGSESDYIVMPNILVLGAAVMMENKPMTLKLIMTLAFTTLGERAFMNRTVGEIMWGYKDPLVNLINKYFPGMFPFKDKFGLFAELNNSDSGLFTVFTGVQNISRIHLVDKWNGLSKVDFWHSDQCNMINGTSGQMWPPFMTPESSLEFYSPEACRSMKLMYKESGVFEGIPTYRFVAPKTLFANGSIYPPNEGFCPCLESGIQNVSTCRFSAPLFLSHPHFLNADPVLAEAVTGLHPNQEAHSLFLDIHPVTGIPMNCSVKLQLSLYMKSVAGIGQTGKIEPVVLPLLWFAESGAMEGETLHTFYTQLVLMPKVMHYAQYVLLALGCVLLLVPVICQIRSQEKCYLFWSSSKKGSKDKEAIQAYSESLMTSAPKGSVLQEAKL
Experimental: (§1) Caco-2 clone TC-7 cells were cultured as previously described. For each experiment, cells were seeded and grown on Millicell® hanging cell culture inserts (Millipore S.A.S., Molsheim, France) for 21 days to obtain confluent and highly differentiated cell monolayers. Twelve hours prior to each experiment, the medium in both the apical and basolateral chambers was replaced with serum-free complete medium. The apical uptake of vitamin D forms incorporated in mixed micelles was determined after a 1 h-incubation period in the presence or absence of inhibitors, as previously described. The % of vitamin D taken up was estimated as the quantity of vitamin D present in the harvested cells divided by the sum of the quantity of vitamin D remaining in the apical chamber and that present in the harvested cells. The efflux of vitamin D forms incorporated in mixed micelles was determined as previously described, with minor changes. Briefly, cells first received the vitamin D-rich micelles at the apical side for 4 h. They were then washed once with PBS and equilibrated in serum-free complete medium for 15 min. Cells were either harvested (control) or they received apical medium containing vitamin D-free mixed micelles for 1 h. The % of vitamin D effluxed back to the apical side was estimated as the quantity of vitamin D present in the apical chamber divided by the quantity of vitamin D present in the harvested cells at t0.

[2] = Incorporation of vitamin D forms in synthetic mixed micelles; format: physicochemical; details: for incorporation efficiency into synthetic mixed micelles: vitamin D form 0–20 µM, linear incorporation curves, n = 3
Experimental: Mixed micelles were formed as previously described. Briefly, monoolein (0.3 mM), oleic acid (0.5 mM), phosphatidylcholine (0.04 mM), lysophosphatidylcholine (0.16 mM), and cholesterol (0.1 mM) dissolved in trichloromethane/methanol (2:1, v/v) and vitamin D forms (concentration range: 0–20 µM) dissolved in ethanol were transferred to a glass tube, and the solvent mixture was carefully evaporated under nitrogen. The dried residue was dispersed in DMEM containing 5 mM sodium taurocholate and was incubated at 37 °C for 30 min. The solution was mixed by sonication in a bath sonicator (Branson 3510 MT, 40 kHz; Branson Ultrasonics, Danbury, CT, USA) for 30 min and then incubated at 37 °C for 1 h. It was then filtrated through cellulose ester membranes (0.22 µm) (Millipore S.A.S., Molsheim, France), and the resulting solution of vitamin D-rich mixed micelles was stored at −20 °C until cell culture experiment or vitamin extraction and HPLC analysis. Concentrations of the different forms in the micellar solutions were checked before each experiment.
(§2) Vitamin D forms were extracted from 500 µL aqueous samples using the method previously described. The internal standard was retinyl acetate for D3 and ergocalciferol for both 25(OH)D3 and 1α(OH)D3. After lipid extraction with hexane, dried residues were dissolved in 200 µL of mobile phase (acetonitrile/methanol/water, 60/38/2, v/v/v). A volume of 160 µL was used for HPLC analysis.
(§3) The HPLC system and method were set up according to previous studies. All molecules were identified by retention time compared with pure standards.

[3] = test system: Caco-2 clone TC-7 cells; test: Apical uptake of micellar vitamin D forms by Caco-2 cell monolayers; format: in vitro ADME, human; details: 1 h incubation, mixed micelles; for uptake rate by Caco-2 cells at high concentration: >5 µM apical, n = 6; for uptake rate by Caco-2 cells at low concentration: <1 µM apical, n = 3
Experimental: as §1, §2, §3

[4] = target: T2, NPC1L1 (Homo sapiens, UniProt Q9UHC9); test: Uptake by Caco-2 cells with NPC1L1 inhibition by ezetimibe glucuronide; format: in vitro ADME; details: 10 µM ezetimibe glucuronide (NPC1L1 inhibitor), n = 3
T2 construct: endogenous in cells; host or cells: Caco-2 clone TC-7
T2 sequence (Q9UHC9 22-1359): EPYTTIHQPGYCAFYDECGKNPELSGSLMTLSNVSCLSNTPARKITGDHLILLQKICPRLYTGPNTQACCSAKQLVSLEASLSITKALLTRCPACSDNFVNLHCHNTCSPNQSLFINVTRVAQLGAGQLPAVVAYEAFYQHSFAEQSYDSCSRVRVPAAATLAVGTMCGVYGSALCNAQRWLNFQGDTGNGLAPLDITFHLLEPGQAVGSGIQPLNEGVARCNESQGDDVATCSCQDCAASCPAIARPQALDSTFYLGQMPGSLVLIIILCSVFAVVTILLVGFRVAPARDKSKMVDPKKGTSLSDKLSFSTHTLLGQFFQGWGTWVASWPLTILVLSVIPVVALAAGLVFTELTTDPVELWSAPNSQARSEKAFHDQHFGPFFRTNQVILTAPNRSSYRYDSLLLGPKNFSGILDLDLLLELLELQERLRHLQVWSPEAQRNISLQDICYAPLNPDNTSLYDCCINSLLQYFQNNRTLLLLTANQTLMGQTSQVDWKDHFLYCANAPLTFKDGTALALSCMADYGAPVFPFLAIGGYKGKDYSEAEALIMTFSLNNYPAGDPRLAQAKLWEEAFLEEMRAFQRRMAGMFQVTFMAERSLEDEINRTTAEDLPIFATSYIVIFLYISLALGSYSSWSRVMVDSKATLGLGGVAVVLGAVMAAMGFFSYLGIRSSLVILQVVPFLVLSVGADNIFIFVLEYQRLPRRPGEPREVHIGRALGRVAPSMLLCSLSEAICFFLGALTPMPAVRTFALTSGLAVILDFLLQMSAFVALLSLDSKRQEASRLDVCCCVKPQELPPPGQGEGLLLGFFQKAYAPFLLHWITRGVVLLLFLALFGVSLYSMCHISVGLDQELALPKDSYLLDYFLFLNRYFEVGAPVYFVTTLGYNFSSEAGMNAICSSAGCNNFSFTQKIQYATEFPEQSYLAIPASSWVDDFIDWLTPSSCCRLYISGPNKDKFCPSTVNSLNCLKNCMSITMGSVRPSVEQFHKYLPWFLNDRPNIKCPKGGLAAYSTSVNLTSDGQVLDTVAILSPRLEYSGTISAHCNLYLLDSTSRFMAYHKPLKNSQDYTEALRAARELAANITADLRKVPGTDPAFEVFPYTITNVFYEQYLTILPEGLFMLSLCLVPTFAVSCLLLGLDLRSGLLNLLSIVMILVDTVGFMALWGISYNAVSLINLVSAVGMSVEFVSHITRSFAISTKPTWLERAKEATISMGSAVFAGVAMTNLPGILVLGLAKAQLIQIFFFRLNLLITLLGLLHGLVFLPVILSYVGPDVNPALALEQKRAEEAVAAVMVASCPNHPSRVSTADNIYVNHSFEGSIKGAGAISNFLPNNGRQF
Experimental: as §1

[5] = test system: ASBT; test: Uptake by Caco-2 cells with ASBT inhibition by simvastatin; format: in vitro ADME, human; details: 100 µM simvastatin (ASBT inhibitor), n = 3
Experimental: as §1, with “Cells were either harvested (control) or they received apical medium containing vitamin D-free mixed micelles for 1 h.” left out

[6] = set-up: method as in PubChem Website; details: ref PubChem Website; cited from earlier work
[7] = target: T3, human ASBT (Homo sapiens, UniProt Q12908); test: Uptake by Griptite cells overexpressing ASBT; format: in vitro ADME; details: Griptite cells transfected with human ASBT vs empty plasmid, 37 °C, 1 h
T3 construct: host or cells: Griptite cells (HEK-293-derived, own knowledge)
T3 sequence (Q12908 1-348): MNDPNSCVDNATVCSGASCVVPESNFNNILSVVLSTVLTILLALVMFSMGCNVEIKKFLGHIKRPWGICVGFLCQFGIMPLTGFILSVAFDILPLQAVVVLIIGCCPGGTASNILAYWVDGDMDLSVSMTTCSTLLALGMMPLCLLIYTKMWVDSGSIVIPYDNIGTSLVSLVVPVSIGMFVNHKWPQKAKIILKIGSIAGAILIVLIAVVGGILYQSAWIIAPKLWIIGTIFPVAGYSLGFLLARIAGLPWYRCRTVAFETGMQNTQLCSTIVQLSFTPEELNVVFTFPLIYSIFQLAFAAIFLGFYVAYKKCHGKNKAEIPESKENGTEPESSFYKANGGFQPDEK
Experimental: Griptite cells were cultured and transfected with 3 µg DNA (either ASBT in pCMV plasmid or empty pCMV control plasmid) similarly to HEK cells, as previously described. Transfection efficiency was verified by western blotting, as previously published. A pre-incubation of the cell monolayers with DMEM supplemented with either DMSO (control) or 100 µM simvastatin was performed during 30 min. Synthetic mixed micelles containing vitamin D forms were diluted in DMEM (1:5) to avoid cytotoxicity [23](data not shown). Apical uptake of vitamin D forms was determined after a 1 h-incubation with a solution of micellar vitamin D containing either DMSO or 100 µM simvastatin (final concentration of DMSO in both conditions: 0.01%). The % of vitamin D taken up was estimated as the quantity of vitamin D present in the harvested cells divided by the sum of the quantity of vitamin D remaining in the apical chamber and that present in the harvested cells.

Compound | decrease of uptake in the presence of BLT1 [1] | incorporation efficiency into synthetic mixed micelles [2] [%] | fold improvement of solubilization into mixed micelles compared to 25-hydroxycholecalciferol ([2]; vs 25-hydroxycholecalciferol) [fold] | fold improvement of solubilization into mixed micelles compared to cholecalciferol ([2]; vs cholecalciferol) [fold] | uptake rate by Caco-2 cells at high concentration [3] [%] | uptake rate by Caco-2 cells at low concentration [3] [%] | decrease of uptake in the presence of ezetimibe glucuronide [4] | decrease of uptake in the presence of simvastatin [5] | log P [6] | effect of ASBT overexpression on uptake [7]
C=C1/C(=C\C=C2/CCC[C@]3(C)[C@@H]([C@H](C)CCCC(C)C)CC[C@@H]23)C[C@@H](O)C[C@@H]1O [1α(OH)D3, 1-α-hydroxycholecalciferol] | not significantly modified | 62 | 2.9 | 1.6 | 25 | 18 | but not | ~15% | 6.8 | changed neither
C=C1CC[C@H](O)C/C1=C/C=C1\CCC[C@]2(C)[C@@H]([C@H](C)CCCC(C)(C)O)CC[C@@H]12 [25(OH)D3, 25-hydroxycholecalciferol] | not significantly modified | 21 | – | – | 34 | 29 | but not | – | 6.2 | –
C=C1CC[C@H](O)C/C1=C/C=C1\CCC[C@]2(C)[C@@H]([C@H](C)CCCC(C)C)CC[C@@H]12 [D3, cholecalciferol] | 31% | 39 | – | – | 18 | 10 | 30% | about 24% | 7.9 | changed neither
